Drawing on US9029370B2, “Substituted benzamide derivatives” (Hoffmann-La Roche Inc., priority 2011, dated 2015), this text covers Ki for 13 molecules.

One assay has as its target mouse TAAR1 (Mus musculus (Mouse), UniProt Q923Y8). As to the kind of experiment: Radioligand binding assay on mouse TAAR1. The conditions noted are these: mouse TAAR1, HEK-293 membranes; first value of the pair (before the slash); read-out: Ki (μM) mouse/rat. Put shortly:
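Membranes from HEK293 cells stably expressing mouse TAAR1, in HEPES-NaOH pH 7.4 with 0.1 mM EDTA, were incubated 1 h at 4°C with tritiated (S)-4-[(ethyl-phenyl-amino)-methyl]-4,5-dihydro-oxazol-2-ylamine and compound (10 pM–10 μM, duplicates). Nonspecific binding defined with 10 μM unlabeled ligand; bound radioactivity by filtration and scintillation counting.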

The target of another assay is rat TAAR1 (Rattus norvegicus (Rat), UniProt Q923Y9). As to the kind of experiment: Radioligand binding assay on rat TAAR1. The conditions noted are these: rat TAAR1, HEK-293 membranes; second value of the pair (line below); read-out: Ki (μM) mouse/rat. An outline of the steps: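 Membranes from HEK293 cells stably expressing rat TAAR1 were incubated 1 hr at 4 °C with ^3[H]-(S)-4-[(ethyl-phenyl-amino)-methyl]-4,5-dihydro-oxazol-2-ylamine; nonspecific binding was defined with 10 μM unlabeled ligand. Compounds were tested at 10 pM to 10 μM in duplicate. Bound radioactivity was read by filtration and scintillation counting.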

Counter-ions that a name gives are not always drawn.

rat TAAR1, sequence (Q923Y9 whole entry): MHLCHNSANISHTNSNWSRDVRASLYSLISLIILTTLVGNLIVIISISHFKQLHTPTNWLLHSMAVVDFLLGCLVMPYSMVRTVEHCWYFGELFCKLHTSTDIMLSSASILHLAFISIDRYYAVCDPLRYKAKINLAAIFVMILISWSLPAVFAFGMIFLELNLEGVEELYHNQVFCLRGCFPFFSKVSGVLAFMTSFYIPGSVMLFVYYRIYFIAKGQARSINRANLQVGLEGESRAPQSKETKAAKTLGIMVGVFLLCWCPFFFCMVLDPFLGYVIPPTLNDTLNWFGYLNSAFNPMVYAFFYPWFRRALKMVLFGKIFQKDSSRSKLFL
mouse TAAR1, sequence (Q923Y8 whole entry): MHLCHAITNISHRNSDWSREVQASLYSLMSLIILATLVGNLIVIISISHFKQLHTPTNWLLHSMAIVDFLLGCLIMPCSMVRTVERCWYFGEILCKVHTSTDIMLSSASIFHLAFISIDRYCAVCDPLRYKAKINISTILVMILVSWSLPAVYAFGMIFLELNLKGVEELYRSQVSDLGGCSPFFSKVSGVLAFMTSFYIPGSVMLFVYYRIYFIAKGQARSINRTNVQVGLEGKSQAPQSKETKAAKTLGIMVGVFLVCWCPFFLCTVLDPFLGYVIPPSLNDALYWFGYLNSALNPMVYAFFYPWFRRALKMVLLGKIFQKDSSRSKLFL

For `COc1cc(C(=O)Nc2ccc([C@H]3CNCCO3)c(F)c2)cc(C#N)n1` [Example 107, (S)-2-Cyano-N-(3-fluoro-4-(morpholin-2-yl)phenyl)-6-methoxyisonicotinamide hydrochloride], the values for the Ki at mouse TAAR1 and at rat TAAR1 were 0.0093 µM and 0.0065 µM, respectively.
Take `N#Cc1ccc(-n2cc(C(=O)Nc3ccc([C@H]4CNCCO4)c(F)c3)cn2)c(F)c1` [Example 108, (S)-1-(4-Cyano-2-fluorophenyl)-N-(3-fluoro-4-(morpholin-2-yl)phenyl)-1H-pyrazole-4-carboxamide hydrochloride]: the Ki is 0.0054 µM at mouse TAAR1 and 0.0059 µM on rat TAAR1.
As to `N#Cc1ccc(-n2cc(C(=O)Nc3ccc([C@H]4CNCCO4)c(Cl)c3)cn2)c(F)c1` [Example 109, (S)—N-(3-Chloro-4-(morpholin-2-yl)phenyl)-1-(4-cyano-2-fluorophenyl)-1H-pyrazole-4-carboxamide hydrochloride], the Ki turned out to be 0.0026 µM on mouse TAAR1 and 0.0038 µM at rat TAAR1.
Consider `N#Cc1ccc(-n2cc(C(=O)Nc3ccc([C@H]4CNCCO4)cc3F)cn2)c(F)c1` [Example 110, (S)-1-(4-Cyano-2-fluorophenyl)-N-(2-fluoro-4-(morpholin-2-yl)phenyl)-1H-pyrazole-4-carboxamide hydrochloride], for which the Ki on mouse TAAR1 came to 0.0088 µM; at rat TAAR1, 0.0152 µM.
On the same counts, the results for `N#Cc1ccc(-n2cc(C(=O)Nc3ccc([C@H]4CNCCO4)cc3F)cn2)cc1` [Example 111, (S)-1-(4-Cyanophenyl)-N-(2-fluoro-4-(morpholin-2-yl)phenyl)-1H-pyrazole-4-carboxamide hydrochloride] are 0.0074 µM and 0.0086 µM.
For the molecule `Cc1cc(C(=O)Nc2ccc([C@H]3CNCCO3)c(Cl)c2)cc(C#N)n1` [Example 112, (S)—N-(3-Chloro-4-(morpholin-2-yl)phenyl)-2-cyano-6-methylisonicotinamide hydrochloride], the values for the Ki on mouse TAAR1 and on rat TAAR1 were 0.0259 µM and 0.0248 µM, respectively.
`Cc1cc(C(=O)Nc2ccc([C@H]3CNCCO3)cc2F)cc(C#N)n1` [Example 113, (S)-2-Cyano-N-(2-fluoro-4-(morpholin-2-yl)phenyl)-6-methylisonicotinamide hydrochloride]: the Ki at mouse TAAR1 amounted to 0.0481 µM; at rat TAAR1, 0.0654 µM.
For the molecule `Cc1cc(C(=O)Nc2ccc([C@H]3CNCCO3)c(F)c2)cc(C(N)=O)n1` [Example 114, (S)—N4-(3-Fluoro-4-(morpholin-2-yl)phenyl)-6-methylpyridine-2,4-dicarboxamide hydrochloride], the Ki turned out to be 0.0649 µM at mouse TAAR1 and 0.265 µM on rat TAAR1.
In the case of `Cc1cc(C(=O)Nc2ccc([C@H]3CNCCO3)c(F)c2)cc(C#N)n1` [Example 115, (S)-2-Cyano-N-(3-fluoro-4-(morpholin-2-yl)phenyl)-6-methylisonicotinamide hydrochloride], the Ki at mouse TAAR1 was 0.029 µM; at rat TAAR1, 0.0343 µM.
`NC(=O)c1cc(C(=O)Nc2ccc([C@H]3CNCCO3)c(F)c2)cc(Cl)n1` [Example 116, (S)-6-Chloro-N4-(3-fluoro-4-(morpholin-2-yl)phenyl)pyridine-2,4-dicarboxamide hydrochloride]: the Ki on mouse TAAR1 was 0.0512 µM; at rat TAAR1, 0.162 µM.
Regarding `CCc1cc(C(=O)Nc2ccc([C@H]3CNCCO3)c(F)c2)cc(C(N)=O)n1` [Example 117, (S)-6-Ethyl-N4-(3-fluoro-4-(morpholin-2-yl)phenyl)pyridine-2,4-dicarboxamide hydrochloride], the Ki on mouse TAAR1 stood at 0.0284 µM; at rat TAAR1 it was 0.045 µM.
Regarding `Cc1cc(C(=O)Nc2ccc([C@H]3CNCCO3)c(Cl)c2)cc(C(N)=O)n1` [Example 118, (S)—N4-(3-Chloro-4-(morpholin-2-yl)phenyl)-6-methylpyridine-2,4-dicarboxamide hydrochloride], the figures for the Ki on mouse TAAR1 and at rat TAAR1 were 0.0416 µM and 0.264 µM, respectively.
For `Cc1cc(C(=O)Nc2ccc([C@H]3CNCCO3)cc2F)cc(C(N)=O)n1` [Example 119, (S)—N4-(2-Fluoro-4-(morpholin-2-yl)phenyl)-6-methylpyridine-2,4-dicarboxamide hydrochloride], the Ki amounted to 0.0844 µM at mouse TAAR1 and 0.687 µM at rat TAAR1.
